Source: patent US20060079696A1, “Substituted compounds derived from N-(benzyl)phenylacetamide, preparation and uses” (GENFIT, priority 2004, published 2006)

What follows are molecules tested against T1, ATP-dependent potassium channels (K+ATP) (Rattus norvegicus, UniProt Q09429) (assay: [3H]glibenclamide binding to ATP-dependent potassium channels of rat cerebral cortex). Conditions: 1 h; 300 nM; specific displacement of [3H]glibenclamide 0.1 nM; read-out: KATP binding (300 nM).
T1 construct: the potassium channels derive from a rat's cerebral cortex; tissue CEREP; host or cells: rat cerebral cortex
Experimental: The results shown reflect the specific affinity of the inventive compounds on the ATP-dependent (K^+ATP) potassium channels. The specific binding measured corresponds to the difference between the total binding and the non-specific binding determined in the presence of an excess of non-marked reference ligand (glibenclamide 1 μM). The inventive compounds were tested at doses between 3 and 300 nM: the higher the percentage measured, the stronger the affinity of the compound for the ATP-dependent potassium channels.
The binding test was carried out at CEREP (Celle L'Evescault, France (86)) according to a protocol inspired by Angel et al. (Angel and Bidet 1991): the potassium channels derive from a rat's cerebral cortex and the reference compound is [^3H]glibenclamide at 0.1 nM. The protocol consists of incubation at 22° C. for one hour.

T1 sequence (Q09429 whole entry): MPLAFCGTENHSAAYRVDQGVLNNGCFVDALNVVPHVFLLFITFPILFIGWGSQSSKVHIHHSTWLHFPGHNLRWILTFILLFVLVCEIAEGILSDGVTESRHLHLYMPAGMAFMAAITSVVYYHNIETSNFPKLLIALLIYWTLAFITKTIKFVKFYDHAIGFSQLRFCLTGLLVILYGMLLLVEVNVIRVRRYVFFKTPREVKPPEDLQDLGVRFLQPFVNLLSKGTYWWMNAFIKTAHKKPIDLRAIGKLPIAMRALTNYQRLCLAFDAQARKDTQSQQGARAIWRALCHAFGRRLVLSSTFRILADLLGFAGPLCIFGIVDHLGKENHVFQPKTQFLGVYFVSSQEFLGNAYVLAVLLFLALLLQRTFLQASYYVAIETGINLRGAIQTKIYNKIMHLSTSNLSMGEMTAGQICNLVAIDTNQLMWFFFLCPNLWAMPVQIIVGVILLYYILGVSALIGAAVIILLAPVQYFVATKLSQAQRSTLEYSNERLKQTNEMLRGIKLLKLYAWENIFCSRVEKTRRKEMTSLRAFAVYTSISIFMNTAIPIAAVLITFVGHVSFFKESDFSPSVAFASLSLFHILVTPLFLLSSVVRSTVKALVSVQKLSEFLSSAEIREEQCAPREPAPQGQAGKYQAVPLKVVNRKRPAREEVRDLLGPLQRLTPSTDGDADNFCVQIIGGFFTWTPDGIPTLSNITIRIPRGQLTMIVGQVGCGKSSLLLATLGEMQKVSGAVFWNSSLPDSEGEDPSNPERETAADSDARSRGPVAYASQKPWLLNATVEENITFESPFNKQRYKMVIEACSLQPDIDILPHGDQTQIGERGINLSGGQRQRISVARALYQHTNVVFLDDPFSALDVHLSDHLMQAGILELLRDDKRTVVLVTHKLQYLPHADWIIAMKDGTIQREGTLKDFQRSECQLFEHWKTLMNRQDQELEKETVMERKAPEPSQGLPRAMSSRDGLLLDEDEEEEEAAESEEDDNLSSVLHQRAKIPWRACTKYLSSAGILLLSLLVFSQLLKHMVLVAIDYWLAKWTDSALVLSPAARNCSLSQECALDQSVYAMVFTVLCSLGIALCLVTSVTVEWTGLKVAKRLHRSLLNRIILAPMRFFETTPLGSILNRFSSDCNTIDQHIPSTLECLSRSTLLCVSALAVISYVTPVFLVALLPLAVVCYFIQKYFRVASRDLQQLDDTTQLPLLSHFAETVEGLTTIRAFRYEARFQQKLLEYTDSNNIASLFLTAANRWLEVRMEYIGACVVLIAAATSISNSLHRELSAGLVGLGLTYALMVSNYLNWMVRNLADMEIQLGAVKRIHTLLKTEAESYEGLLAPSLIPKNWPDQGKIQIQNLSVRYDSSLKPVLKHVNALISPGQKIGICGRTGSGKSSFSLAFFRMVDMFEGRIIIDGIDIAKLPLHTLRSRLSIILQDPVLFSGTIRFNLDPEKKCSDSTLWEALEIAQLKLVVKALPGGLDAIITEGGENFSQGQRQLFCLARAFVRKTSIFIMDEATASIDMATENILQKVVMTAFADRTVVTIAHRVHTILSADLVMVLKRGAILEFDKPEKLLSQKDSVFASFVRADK
T1 sequence (P70673 whole entry partner): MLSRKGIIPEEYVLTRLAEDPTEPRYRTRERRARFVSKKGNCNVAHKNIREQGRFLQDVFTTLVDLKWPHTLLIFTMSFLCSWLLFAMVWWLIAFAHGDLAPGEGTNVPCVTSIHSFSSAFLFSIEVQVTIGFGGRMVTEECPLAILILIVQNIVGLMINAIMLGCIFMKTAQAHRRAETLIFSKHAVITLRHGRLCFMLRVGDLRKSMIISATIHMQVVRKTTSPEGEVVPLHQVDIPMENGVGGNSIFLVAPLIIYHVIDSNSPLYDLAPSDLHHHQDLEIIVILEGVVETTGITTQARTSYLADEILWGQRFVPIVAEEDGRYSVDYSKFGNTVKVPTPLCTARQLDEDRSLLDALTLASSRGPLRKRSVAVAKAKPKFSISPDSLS

Row | SMILES | inhibition at 0.3 µM [%]
1 | CC(C)(Oc1ccc(CC(=O)NC(c2ccccc2)c2ccccc2N2CCCCC2)cc1)C(=O)O (stereo not drawn) [Compound 3, 2-[4-[1-(1-phenyl-1-(2-(1-piperidinyl)phenyl)methyl)aminocarbonylmethyl]phenoxy]-2-methylpropanoic acid] | 75
2 | CC(C)(Oc1ccc(CC(=O)NC(c2ccccc2N2CCCCC2)C2CCCCC2)cc1)C(=O)O (stereo not drawn) [Compound 6, 2-[4-[1-(1-cyclohexyl-1-(2-(1-piperidinyl)phenyl)methyl)aminocarbonylmethyl]phenoxy]-2-methylpropanoic acid] | 47
3 | CC(C)CC(NC(=O)Cc1ccc(OC(C)(C)C(=O)O)cc1)c1cccc(N2CCCCC2)c1 (stereo not drawn) [Compound 8, 2-[4-[1-(3-methyl-1-(3-(1-piperidinyl)phenyl)butyl)aminocarbonylmethyl]phenoxy]-2-methylpropanoic acid] | 48
4 | CC(C)CC(NC(=O)Cc1ccc(OC(C)(C)C(=O)O)cc1)c1ccccc1N1CCCC1 (stereo not drawn) [Compound 16, 2-[4-[1-(3-methyl-1-(2-(1-pyrrolidinyl)phenyl)butyl)aminocarbonylmethyl]phenoxy]-2-methylpropanoic acid] | 76
5 | CC(C)CC(NC(=O)Cc1ccc(OC(C)(C)C(=O)O)cc1)c1ccccc1N1CCCCCC1 (stereo not drawn) [Compound 18, 2-[4-[1-(3-methyl-1-(2-(1-hexamethyleneimino)phenyl)butyl)aminocarbonylmethyl]phenoxy]-2-methylpropanoic acid] | 69
6 | CCN(CC)c1ccccc1C(CC(C)C)NC(=O)Cc1ccc(OC(C)(C)C(=O)O)cc1 (stereo not drawn) [Compound 20, 2-[4-[1-(3-methyl-1-(2-(diethylamino)phenyl)butyl)aminocarbonylmethyl]phenoxy]-2-methylpropanoic acid] | 85
7 | CC(C)CC(NC(=O)Cc1ccc(OC(C)(C)C(=O)O)cc1)c1cc(Cl)ccc1N1CCCCC1 (stereo not drawn) [Compound 22, 2-[4-[1-(3-methyl-1-(2-(1-piperidinyl)-5-(chloro)phenyl)butyl)aminocarbonylmethyl]phenoxy]-2-methylpropanoic acid] | 88
8 | CC(C)CC(NC(=O)Cc1ccc(OCC(=O)O)cc1)c1ccccc1N1CCCCC1 (stereo not drawn) [Compound 23, 2-[4-[1-(3-methyl-1-(2-(1-piperidinyl)phenyl)butyl)aminocarbonylmethyl]phenoxy]acetic acid] | 97
9 | CC(C)CC(NC(=O)Cc1ccc(OC(C)C(=O)O)cc1)c1ccccc1N1CCCCC1 (stereo not drawn) [Compound 24, 2-[4-[1-(3-methyl-1-(2-(1-piperidinyl)phenyl)butyl)aminocarbonylmethyl]phenoxy]propanoic acid] | 93
10 | CCC(Oc1ccc(CC(=O)NC(CC(C)C)c2ccccc2N2CCCCC2)cc1)C(=O)O (stereo not drawn) [Compound 25, 2-[4-[1-(3-methyl-1-(2-(1-piperidinyl)phenyl)butyl)aminocarbonylmethyl]phenoxy]butanoic acid] | 91
11 | CC(C)CC(NC(=O)Cc1ccc(OC(C(=O)O)C(C)C)cc1)c1ccccc1N1CCCCC1 (stereo not drawn) [Compound 26, 2-[4-[1-(3-methyl-1-(2-(1-piperidinyl)phenyl)butyl)aminocarbonylmethyl]phenoxy]-3-methylbutanoic acid] | 92
12 | CC(C)CC(NC(=O)Cc1ccc(OC(C(=O)O)c2ccccc2)cc1)c1ccccc1N1CCCCC1 (stereo not drawn) [Compound 27, 2-[4-[1-(3-methyl-1-(2-(1-piperidinyl)phenyl)butyl)aminocarbonylmethyl]phenoxy]-2-phenylacetic acid] | 95
13 | CC(C)CC(NC(=O)Cc1cccc(OC(C)(C)C(=O)O)c1)c1ccccc1N1CCCCC1 (stereo not drawn) [Compound 29, 2-[3-[1-(3-methyl-1-(2-(1-piperidinyl)phenyl)butyl)aminocarbonylmethyl]phenoxy]-2-methylpropanoic acid] | 15
14 | CCCCC(c1ccccc1N1CCCCC1)N(CC(C)C)C(=O)Cc1ccc(OC(C)(C)C(=O)O)cc1 (stereo not drawn) [Compound 35, 2-[4-[N-isobutyl-N-(1-(2-(1-piperidinyl)phenyl)pentyl)aminocarbonylmethyl]phenoxy]-2-methylpropanoic acid] | 22
15 | CC(C)CC(NC(=O)Cc1ccc(OC(C)(C)C(=O)O)cc1)c1cc(Br)ccc1N1CCCCC1 (stereo not drawn) [Compound 37, 2-[4-[1-(3-methyl-1-(2-(1-piperidinyl)-5-(bromo)phenyl)butyl)aminocarbonylmethyl]phenoxy]-2-methylpropanoic acid] | 76
16 | CCCCC(NC(=O)Cc1ccc(OC(C)(C)C(=O)O)cc1)c1ccccc1S(=O)(=O)c1ccccc1 (stereo not drawn) [Compound 41, 2-[4-[1-(1-(2-(phenylsulfonyl)phenyl)pentyl)aminocarbonylmethyl]phenoxy]-2-methylpropanoic acid] | 12
17 | CCCCC(NC(=O)Cc1ccc(OC(C)(C)C(=O)O)cc1)c1ccccc1O (stereo not drawn) [Compound 44, 2-[4-[1-(1-(2-(hydroxy)phenyl)pentyl)aminocarbonylmethyl]phenoxy]-2-methylpropanoic acid] | 48
18 | CC(C)(Oc1ccc(CC(=O)NC(CCc2ccccc2)c2ccccc2N2CCCCC2)cc1)C(=O)O (stereo not drawn) [Compound 51, 2-[4-[1-(3-phenyl-1-(2-(1-piperidinyl)phenyl)propyl)aminocarbonylmethyl]phenoxy]-2-methylpropanoic acid] | 32
19 | CC(C)CC(NC(=O)Cc1ccc(OC(C)(C)C(=O)O)c(Cl)c1)c1ccccc1N1CCCCC1 (stereo not drawn) [Compound 56, 2-[2-chloro-4-[1-(3-methyl-1-(2-(1-piperidinyl)phenyl)butyl)aminocarbonylmethyl]phenoxy]-2-methylpropanoic acid] | 49
20 | CC(C)CC(NC(=O)Cc1ccc(OC(C)(C)C(=O)NS(C)(=O)=O)cc1)c1ccccc1N1CCCCC1 (stereo not drawn) [Compound 58, N-[methylsulfonyl]-2-[4-[1-(3-methyl-1-(2-(1-piperidinyl)phenyl)butyl)aminocarbonylmethyl]phenoxy]-2-methylpropanamide] | 94
21 | CC(C)(Oc1ccc(CC(=O)NC(Cc2ccccc2)c2ccccc2N2CCCCC2)cc1)C(=O)NS(C)(=O)=O (stereo not drawn) [Compound 62, N-[methylsulfonyl]-2-[4-[1-(2-phenyl-1-(2-(1-piperidinyl)phenyl)ethyl)aminocarbonylmethyl]phenoxy]-2-methylpropanamide] | 46
